According to patent US8129163B2, “Gene suitable for alcohol dehydrogenase, vector and transformant” (Kaneka Corporation, priority 2006, dated 2012):
Like-named read-outs stand apart in the source and are kept apart here.

Assays:
RMA [1] = tested on: RMA
Protocol: Progress of oxidization reaction may be easily evaluated by, at first, preparing a reaction mixture including 2.5 mMNAD^+, a 50 mM target alcohol compound, oxidation activity of which is to be evaluated, and a polypeptide of the present invention in 50 mM tris-HCl buffer (pH 9.0), then allowing the reaction mixture to react at 30° C. and finally observing increase of absorbance at the wavelength of 340 nm, which is accompanied by increase of NADH level. […] Rapid increasing rate of the absorbance reflects high ability of the polypeptide of the present invention to oxidize a target alcohol compound. The oxidizing ability of a polypeptide may be expressed in terms of numerical values. Thus, oxidizing activity 1 U is defined as an enzyme level that catalyzes generation of 1 μmol of NADH per minute.
Physicochemical properties of RMA as obtained in the above manner were studied. Each activity was determined in accordance with a method as described in [Method for evaluating oxidizing ability to an alcohol compound].

RMA [2] = assay type: biochemical, Candida maltosa IFO 1977 strain; details: for Relative activity (%) of RMA after treatment with inhibitor: inhibitor 1 mM, 30° C. for 30 minutes, untreated RMA = 100%; for inhibition of RMA (in words): treatment at 30° C. for 30 minutes, concentrations of Table 6
Protocol: In 1 mM concentration solution or mixture of various compounds, a polypeptide is treated at 30° C. for 30 minutes. […] Concentrations of agents at the time of treatment are illustrated in Table 6.

[3] = tested on: enzyme derived from Candida parapsilosis IFO 1396 strain; details: cited from earlier work
RMA [4] = assay type: biochemical, Candida maltosa IFO 1977 strain

SMILES | activity (RMA [1]) [%] | also measured
CCCC(C)O (stereo not drawn) [2-Pentanol] | 183 | –
O[C@H](CS)[C@H](O)CS (racemic) [Dithiothreitol] | – | Relative activity (%) of RMA after treatment with inhibitor (RMA [2]): 92.2%; inhibition of RMA (in words) (RMA [2]): did not; inhibition of enzyme activity (in words) [3]: inhibited
CC(C)O [2-Propanol] | 66 | –
C[C@@H](O)C[C@@H](C)O [(2R,4R)-2,4-Pentandiol] | 0.5 | –
O=C(O)CI [Iodoacetic acid] | – | Relative activity (%) of RMA after treatment with inhibitor (RMA [4]): 78.9%
C[C@H](O)CN [(S)-1-Amino-2-propanol] | 2 | –
C[C@@H](O)CCO [(R)-1,3-Butandiol] | 1.3 | –
OC1CCCCC1 [Cyclohexanol] | 30 | –
C[C@H](O)c1ccccc1 [(S)-1-Phenylethanol] | 307 | –
C/C=C/C(=O)O [Crotonic acid] | – | Relative activity (%) of RMA after treatment with inhibitor (RMA [4]; inhibitor 50 mM, 30° C. for 30 minutes, untreated RMA = 100%): 10.4%
C[C@H](O)CO [(S)-1,2-propandiol] | 0.7 | –
C[C@H](O)CCO [(S)-1,3-Butandiol] | 9.5 | –
NO [NH2OH] | – | Relative activity (%) of RMA after treatment with inhibitor (RMA [4]; inhibitor 0.01 mM, 30° C. for 30 minutes, untreated RMA = 100%): 96.1%
CO [Methanol] | 0.6 | –
C[C@@H](O)CO [(R)-1,2-Propandiol] | 0.7 | –
O=C(O)c1cc[c]([Hg][Cl])cc1 [p-Chloromercuribenzoate] | – | Relative activity (%) of RMA after treatment with inhibitor (RMA [4]; inhibitor 0.05 mM, 30° C. for 30 minutes, untreated RMA = 100%): 96.3%
CCC(O)C(=O)O (stereo not drawn) [2-Hydroxybutyric acid] | 4.9 | –
CCC(O)CC [3-Pentanol] | 40 | –
CC(O)CC(C)O (stereo not drawn) [2,4-Pentandiol] | 34 | –
CCCCCCC(C)O (stereo not drawn) [2-Octanol] | 134 | –
O=C(O)CN(CCN(CC(=O)O)CC(=O)O)CC(=O)O [Ethylenediaminetetraacetic acid] | – | Relative activity (%) of RMA after treatment with inhibitor (RMA [4]): 12.9%; inhibition of RMA (in words) (RMA [4]): inhibited; inhibition of enzyme activity (in words) [3]: not inhibited
OCCS [β-Mercaptoethanol] | – | Relative activity (%) of RMA after treatment with inhibitor (RMA [2]): 95.4%; inhibition of RMA (in words) (RMA [2]): did not; inhibition of enzyme activity (in words) [3]: inhibited
O=S(=O)([O-])[O-].[Zn+2] [ZnSO4, zinc sulfate] | – | Relative activity (%) of RMA after treatment with inhibitor (RMA [2]): 23.1%; inhibition of RMA (in words) (RMA [2]): inhibited
